Test system: MEF/GFP-Stat3α cells
Assay: HTFM cytoplasmic-to-nuclear translocation of GFP-Stat3α
Type: cell-based, murine
Conditions: for IC50: Mus musculus, 0.5 h, MEF/GFP-Stat3α, IL-6 200 ng/ml and IL-6sR 250 ng/ml 30 min, read-out: HTM IC50 (ligand-mediated nuclear translocation of GFP-Stat3α)
Protocol: Coverslips were examined by confocal fluorescent microscopy using filters to detect GFP (column one), DAPI (column two) or both (merge; column three). In panel B, MEF-GFP-Stat3 cells were grown in 96-well plates with optical glass bottoms and pretreated with the indicated compound at the indicated concentrations in quadruplicate for 1 hour then stimulated with IL-6 (200 ng/ml) and IL-6sR (250 ng/ml) for 30 minutes. Cells were fixed and the plates were examined by high-throughput microscopy to determine the fluorescence intensity in the nucleus (FLIN) and the % ΔFLINMax was calculated as described in Example 1. Data shown are mean±SD and are representative of 2 or more studies. Best-fit curves were generated based on 4 Parameter Logistic Model/Dose Response One Site/XLfit 4.2, IDBS and were used to calculate IC50 (Table 1).
Confocal and high-throughput fluorescence microscopy. Confocal and highthroughput fluorescence microscopy (HTFM) of MEF/GFP-Stat3α cells were performed as described (Huang et al., 2007). Briefly, for confocal fluorescence microscopy, cells were grown in 6-well plates containing a cover slip. For HTFM, cells were seeded into 96-well CC3 plates at a density of 5,000 cells/well using an automated plating system. Cells were cultured under standard conditions until 85-90% confluent. Cells were pretreated with compound for 1 hour at 37° C. then stimulated with IL-6 (200 ng/ml) and IL-6sR (250 ng/ml) for 30 minutes. Cells were fixed with 4% formaldehyde in PEM Buffer (80 mM Potassium PIPES, pH 6.8, 5 mM EGTA pH 7.0, 2 mM MgCl2) for 30 minutes at 4° C., quenched in 1 mg/ml of NaBH4 (Sigma) in PEM buffer and counterstained for 1 min in 4,6-diamidino-2-phenylindole (DAPI; Sigma; 1 mg/ml) in PEM buffer. Cover slips were examined by confocal fluorescent microscopy. Plates were analyzed by automated HTFM using the Cell Lab IC Image Cytometer (IC100) platform and CytoshopVersion 2.1 analysis software (Beckman Coulter). Nuclear translocation is quantified by using the fraction localized in the nucleus (FLIN) measurement (Sharp et al., 2006).
Following its phosphorylation on Y705, Stat3 undergoes a change in conformation from head-to-head dimerization mediated through its N-terminal oligomerization domain to tail-to-tail dimerization mediated by reciprocal SH2/pY705-peptide ligand interactions. This conformational change is followed by nuclear accumulation. Compounds that targeted SH2/pY-peptide ligand interactions of Stat3 would be expected to inhibit nuclear accumulation of Stat3. […]
EXP IIB. High throughput fluorescence microscopy (HTFM), cytoplasm-to-nucleus translocation inhibition assays. […] Plates are analyzed by automated HTFM using the Cell Lab IC Image Cytometer (IC100) platform and CytoshopVersion 2.1 analysis software (Beckman Coulter). […]

SMILES | IC50 | blocked ligand-mediated nuclear translocation of GFP-Stat3 (MEF/GFP-Stat3α cells)
CCOc1cc(C=C2C(=O)c3ccccc3C2=O)cc(Cl)c1OCc1cccc(C(=O)O)c1 [Cpd3-2, 3-({2-chloro-4-[(1,3-dioxo-1,3-dihydro-2H-inden-2-ylidene)methyl]-6-ethoxyphenoxy}methyl)benzoic acid] | 150 µM | –
O=C(O)c1ccc(C=CC(=O)c2ccc3c(c2)OCCO3)cc1 [Cpd3, 4-[3-(2,3-dihydro-1,4-benzodioxin-6-yl)-3-oxo-1-propen-1-yl]benzoic acid] | 131 µM | –
CCN1C(=O)C(=Cc2ccc(-c3cc(C(=O)O)ccc3Cl)o2)C(=O)N(CC)C1=S [Cpd30-12, 4-chloro-3-{5-[(1,3-diethyl-4,6-dioxo-2-thioxotetrahydro-5(2H)-pyrimidinylidene)methyl]-2-furyl}benzoic acid] | > 300 µM | not
